From patent publication US20220193013A1, “Pharmaceutical Composition for Treatment or Prevention of Multiple Inflammatory Disorders” (priority 2020, published 2022)

How the values were obtained:
[1] = system: leptin-deficient (ob/ob) mice; test: body weight study of denatonium acetate in leptin-deficient (ob/ob) mice fed with high-fat diet, 28 days; type: in vivo, mouse; settings: vs vehicle
Protocol: This example describes an in vivo study of denatonium acetate on body weight in leptin-deficient (ob/ob) mice. Adult leptin-deficient mice (homozygote, ob/ob mice) fed with high-fat diet. There was a vehicle control group (15 mice) that were treated with distilled water by gavage BID. The DA group (15 mice) were treated with a DA solution at a dose of 23.1 mg/kg BID. Body weights and body weight changes were determined at days 1, 3, 7, 10, 14, 21, 24 and 28. Food intake was determined on days 3, 7, 10, 14, 17, 21, […] and 28. On day 28 blood samples were taken for cytokine analysis, HbA1c, HDL, LDL, insulin, and bile acids. Statistics were done by two-way repeated measures ANOVA followed by Tukey's multiple comparison post hoc test.

[2] = system: microbial populations in fecal samples; test: microbiome study in NASH mouse model (AMLN diet), 4 weeks; type: in vivo
Source text: There were changes in the microbiome in a mice model using a high-fat diet after 4 weeks of treatment with and without administering DA orally. The high fat diet itself induced extensive changes in the microbial populations in all groups. Importantly though, there was a pronounced difference between the DA treatment group and the control group at week 4.
The effect of a small molecule oral TAS2R agonist (DA) was investigated on microbial populations in a nonalcoholic steatohepatitis (NASH) mouse model. Two groups of 4-week-old male C57BL/6 mice (20/group) were fed Amylin Liver NASH (AMLN) diet and received daily doses of ARD-101 (30 mg/mL in water) or vehicle (water) via intragastric gavage. DNA was isolated from fecal samples collected at week 0 and 4, and microbial ecology was evaluated using bTEFAP (bacterial tag-encoded FLX amplicon pyrosequencing). Operational taxonomic units were classified using BLAST against a curated NCBI database. Diversity within specific ecosystems and microbial community structures was analyzed with Qiime 2. Differences were determined by repeated measures ANOVA and post hoc pairwise comparisons using Tukey's test. Taxonomic classification data were evaluated with a dual hierarchal dendrogram.

[3] = system: acute lung injury plus hyperthermia, CD-1 mice; test: mouse acute lung injury plus hyperthermia model; type: in vivo
Protocol: This example provides results of a study to evaluate the effect of denatonium acetate in a mouse acute lung injury plus hyperthermia model. The procedure was three groups of CD-1 mice given (1) saline by gavage for oral administration BID, (2) DA administered oral at a dose of 92.4 mg/kg BID and (3) was DA iv at 3 mg/kg iv bolus QD. Lung lavage fluid was measured and cytokine analysis. Statistics was one-way ANOVA followed by Tukey's multiple comparison post hoc test for data with normal distribution; Kruskal-Wallis test followed by Dunn's multiple comparison post hoc test for data with skewed distribution; and the ROUT method for identifying outliers. Control or drug administered for 3 days, then LPS at 50 μL of 1 mg/ml delivered intratracheally with a Penn Century needle where a core temperature of 39 C at 24 hours post LPS and then sacrifice to measure lung lavage fluid protein concentration and serum cytokine levels.

[4] = system: inflammatory biomarkers in tested animals; test: biomarkers compared across many studies (Table 2); type: in vivo; settings: PO 92.4 mg/kg DA BID
Protocol: The many examples provided herein show the effect of the denatonium salts on various in vivo and in vitro models of various disease indications. In addition, blood samples were taken from the tested (and control) animals and various biomarkers were measured and compared. FIGS. 70A-C show graphs comparing biomarkers across many studies. […] It should be noted that clusters of multiple biomarkers predict effectiveness for each disease indication and that grouping is shown in FIG. 71.

[5] = 23.1 mg/kg BID, pre-dose to day 28, not statistically significant
[6] = 4-week DA treatment, genetic potential of microbiome
[7] = treatment at 4 weeks versus baseline and control
[8] = week 4, DA group versus vehicle group, AMLN diet

For `CC(=O)[O-].CC[N+](CC)(CC(=O)Nc1c(C)cccc1C)Cc1ccccc1` [DA, denatonium acetate], the “average daily average individual food intake” value ([1]; 23.1 mg/kg BID gavage, 28 days) was “no difference”, the GM-CSF in blood ([1]; 23.1 mg/kg BID gavage, day 28) was “significant decreases” and the IFNγ in blood ([1]; 23.1 mg/kg BID gavage, day 28) was “significant decreases”. The IL-5 in blood ([1]; 23.1 mg/kg BID gavage, day 28) was “significant decreases”, the IL-10 in blood ([1]; 23.1 mg/kg BID gavage, day 28) was “significant decreases” and the IL-12 in blood ([1]; 23.1 mg/kg BID gavage, day 28) was “significant decreases”. For the same molecule, the KC/CXCL1 in blood ([1]; 23.1 mg/kg BID gavage, day 28) was “significant decreases”, the M-CSF in blood ([1]; 23.1 mg/kg BID gavage, day 28) was “significant decreases” and the “blood HDL level” value ([1]; 23.1 mg/kg BID gavage, day 28) was “statistically significant decrease”. For the same molecule, the “blood HbA1c levels” value ([1]; 23.1 mg/kg BID gavage, day 28) was “no statistically significant difference”, the “blood LDL levels” value ([1]; 23.1 mg/kg BID gavage, day 28) was “no statistically significant difference” and the “blood bile acid levels” value ([1]; 23.1 mg/kg BID gavage, day 28) was “no statistically significant difference”. For the same molecule, the blood insulin levels ([1]; 23.1 mg/kg BID gavage, day 28) was “no statistically significant difference”, the “blood total cholesterol levels (LDL plus HDL)” value ([1]; 23.1 mg/kg BID gavage, day 28) was “almost significant decrease” and the “fasting blood glucose level” value ([1]; 23.1 mg/kg BID gavage, day 28) was “no statistically significant difference”. The body weight change ([1]; 23.1 mg/kg BID gavage, days 1-28, P=0.105) was “no significant main effect”, the “body weight change at day 28” value ([1]; 23.1 mg/kg BID gavage) was “no statistically significant difference” and the “cumulative food consumption over 28 days” value ([1]; 23.1 mg/kg BID gavage) was “no statistically significant difference”. For the same molecule, the “change in granulocyte number” value [1, 5] was “trend of increasing change”, the “change in lymphocyte and white blood cell numbers and percentage” value [1, 5] was “trend of increasing change” and the “change in monocyte number and percentage” value [1, 5] was “trend of increasing change”. The “arginine and ornithine metabolism” value [2, 6] was “significantly decreased signaling”, the “pathways for biosynthesis of unsaturated fatty acids” value [2, 6] was “significant enrichment” and the “pathways for glycolysis and gluconeogenesis” value [2, 6] was “significant enrichment”. The “pathways for lysine degradation” value [2, 6] was “significant enrichment”, the “pathways for metabolism of arachidonic acid” value [2, 6] was “significant enrichment” and the “pathways for metabolism of cofactors and vitamins” value [2, 6] was “significant enrichment”. For the same molecule, the phosphatidylinositol signaling [2, 6] was “significant enrichment”, the SCFAs in feces ([2]; AMLN diet, DA treatment) was “mitigated the diet-induced decrease” and the “diversity within ecosystems and microbial communities” value ([2]; DA versus vehicle group at week 4, p<0.05) was “significantly less diversity”. For the same molecule, the “genus: Lachnoclostridium, Barnesiella, Clostridium, Oscillospira, Dorea, candidatus soleaferrea, Dehalobacterium, Oscillibacter, Flavonifractor” value [2, 7] was “Significantly Decreased”, the “genus: Parabacteroides, Escherichia, Erysipelatoclostridium, Peptoclostridium, Sutterella, Shigella, Brenneria” value [2, 7] was “Significantly Increased” and the “Cyanobacteria (phylum level)” value [2, 8] was “significant increases”. For the same molecule, the “Deferribacteres (phylum level)” value [2, 8] was “significant decreases”, the “Firmicutes (phylum level)” value [2, 8] was “significant decreases” and the “Proteobacteria (phylum level)” value [2, 8] was “significant increases”. The “Spirochetes (phylum level)” value [2, 8] was “significant decreases”, the “Verrucomicrobia (phylum level)” value [2, 8] was “significant increases” and the “Bacteroidetes (phylum level)” value ([2]; week 4, not marked significant) was “decreased”. For the same molecule, the “protein concentration in lung lavage fluid” value ([3]; iv 3 mg/kg bolus QD) was “drastic but not significantly reduced”, the “protein concentration in lung lavage fluid” value ([3]; oral 92.4 mg/kg BID) was “drastic but not significantly reduced” and the “Eotaxin, Decreased Percentage Compared to Vehicle” value [4] was −18.6%. For the same molecule, the “G-CSF, Decreased Percentage Compared to Vehicle” value [4] was −37.5%, the “GM-CSF, Decreased Percentage Compared to Vehicle” value [4] was −2.3% and the “IFN-γ, Decreased Percentage Compared to Vehicle” value [4] was −37.3%. The “IL-1α, Decreased Percentage Compared to Vehicle” value [4] was −18.2%, the “IL-1β, Decreased Percentage Compared to Vehicle” value [4] was −12.0% and the “IL-3, Decreased Percentage Compared to Vehicle” value [4] was −74.5%. For the same molecule, the “IL-5, Decreased Percentage Compared to Vehicle” value [4] was −29.1%, the “IL-6, Decreased Percentage Compared to Vehicle” value [4] was −34.2% and the “IL-10, Decreased Percentage Compared to Vehicle” value [4] was −92.5%. The “IL-12 (p70), Decreased Percentage Compared to Vehicle” value [4] was −28.0%, the “IL-17, Decreased Percentage Compared to Vehicle” value [4] was −21.2% and the “KC, Decreased Percentage Compared to Vehicle” value [4] was −21.6%. The “LIX, Decreased Percentage Compared to Vehicle” value [4] was −7.3%, the “MCP-1, Decreased Percentage Compared to Vehicle” value [4] was −24.2% and the “MIG, Decreased Percentage Compared to Vehicle” value [4] was −13.2%. For the same molecule, the “MIP-1α, Decreased Percentage Compared to Vehicle” value [4] was −3.4%, the “MIP-1β, Decreased Percentage Compared to Vehicle” value [4] was −10.2% and the “MIP-2, Decreased Percentage Compared to Vehicle” value [4] was −76.3%. The “RANTES, Decreased Percentage Compared to Vehicle” value [4] was −20.6%.
